Reference: patent publication US10538555B2, “Macrocyclic inhibitors of the PD-1/PD-L1 and CD80(B7-1)/PD-L1 protein/protein interactions” (BRISTOL-MYERS SQUIBB COMPANY, priority 2014, dated 2020)
Where a SMILES comes first, the peptide text is derived from it. Bridges are numbered along the chain shown (N, C = ends). [ ]: non-standard residue; d: D form. ξ: configuration not given here. Trp(1-CH2COOH) = N[C@@H](Cc1cn(CC(=O)O)c2ccccc12)C(=O)O; NMeW = CN[C@@H](Cc1c[nH]c2ccccc12)C(=O)O; Bta = N[C@@H](Cc1csc2ccccc12)C(=O)O; Hyp = O=C(O)[C@@H]1C[C@@H](O)CN1; NMeL = CN[C@@H](CC(C)C)C(=O)O; NMeNle = CCCC[C@H](NC)C(=O)O; NMeA = CN[C@@H](C)C(=O)O; Dab = NCC[C@H](N)C(=O)O; Dap = NC[C@H](N)C(=O)O; ξP = O=C(O)C1CCCN1; Sar = CNCC(=O)O

Each compound was assayed against T1, Human PD-L1/PD-1 (Homo sapiens, UniProt Q9NZQ7) (assay: HTRF Human PD-L1/PD-1 binding assay (PD-1-Ig/PD-L1-His)). Settings: PD-L1-His 10 nM, PD-1-Ig 20 nM; class symbol; read-out: HTRF Human PD-L1/PD-1 Binding Assay IC50 Range.
T1 construct: TVMV protease cleavage site (C); made in house; host or cells: HEK293T cells
How it was run: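 Inhibitors were preincubated 15 min with human PD-L1(18-239)-His (10 nM final), then PD-1(25-167)-Ig (20 nM final) was added for 15 min in dPBS/0.1% BSA/0.05% Tween-20. Eu-cryptate anti-Ig (1 nM) and APC anti-His (20 nM) were added; 665/620 nm ratio read after 30 min.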

T1 sequence (Q9NZQ7 with tags, fused parts or gaps): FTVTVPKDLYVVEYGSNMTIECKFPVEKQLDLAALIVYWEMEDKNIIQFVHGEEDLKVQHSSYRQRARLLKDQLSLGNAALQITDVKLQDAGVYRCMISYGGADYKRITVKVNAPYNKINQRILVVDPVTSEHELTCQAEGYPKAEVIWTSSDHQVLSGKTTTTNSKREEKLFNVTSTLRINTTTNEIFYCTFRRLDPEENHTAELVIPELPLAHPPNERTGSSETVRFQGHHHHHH

Structure (SMILES) | IC50 [nM]
CCCC[C@H]1C(=O)N(C)[C@@H](CCCC)C(=O)N[C@@H](CCC(=O)O)C(=O)N[C@H](C(=O)NCC(N)=O)CSCC(=O)N[C@@H](Cc2ccc(O)cc2)C(=O)N(C)[C@@H](C)C(=O)N[C@@H](CC(=O)O)C(=O)N2CCC[C@H]2C(=O)N[C@@H](CO)C(=O)N[C@@H](CCC(=O)O)C(=O)N2C[C@H](O)C[C@H]2C(=O)N[C@@H](Cc2c[nH]c3ccccc23)C(=O)N[C@@H](CCN)C(=O)N[C@@H](Cc2c[nH]c3ccccc23)C(=O)N1C [Example 5252] ({CH2CO}-Y[NMeA]DPSE[Hyp]W[Dab]W[NMeNle][NMeNle]ECG-NH2; thioether N-14) | 1 to 9.9
CCCC[C@H]1C(=O)N(C)[C@@H](CCCC)C(=O)N[C@@H](CN)C(=O)N[C@H](C(=O)NCC(N)=O)CSCC(=O)N[C@@H](Cc2ccc(O)cc2)C(=O)N(C)[C@@H](C)C(=O)N[C@@H](CC(N)=O)C(=O)N2CCC[C@H]2C(=O)N[C@@H](CN)C(=O)N[C@@H](CCC(N)=O)C(=O)N2C[C@H](O)C[C@H]2C(=O)N[C@@H](Cc2c[nH]c3ccccc23)C(=O)N[C@@H](CO)C(=O)N[C@@H](Cc2cn(CC(=O)O)c3ccccc23)C(=O)N1C [Example 5253] ({CH2CO}-Y[NMeA]NP[Dap]Q[Hyp]WS[Trp(1-CH2COOH)][NMeNle][NMeNle][Dap]CG-NH2; thioether N-14) | 1 to 9.9
CCCC[C@H]1C(=O)N(C)[C@@H](CCCC)C(=O)N[C@@H](CCC(=O)O)C(=O)N[C@H](C(=O)NCC(N)=O)CSCC(=O)N[C@@H](Cc2ccc(O)cc2)C(=O)N(C)[C@@H](C)C(=O)N[C@@H](CC(=O)O)C(=O)N2CCC[C@H]2C(=O)N[C@@H](CO)C(=O)N[C@@H](CC(C)C)C(=O)N2C[C@H](O)C[C@H]2C(=O)N[C@@H](Cc2c[nH]c3ccccc23)C(=O)N[C@@H](CCC(=O)O)C(=O)N[C@@H](Cc2c[nH]c3ccccc23)C(=O)N1C [Example 5254] ({CH2CO}-Y[NMeA]DPSL[Hyp]WEW[NMeNle][NMeNle]ECG-NH2; thioether N-14) | 10 to 99.9
CCCC[C@H]1C(=O)N(C)[C@@H](CCCC)C(=O)N[C@@H](CCC(=O)O)C(=O)N[C@H](C(=O)NCC(N)=O)CSCC(=O)N[C@@H](Cc2ccc(O)cc2)C(=O)N(C)[C@@H](C)C(=O)N[C@@H](CC(=O)O)C(=O)N2CCC[C@H]2C(=O)N[C@@H](Cc2c[nH]cn2)C(=O)N[C@@H](CCCCNC(C)=O)C(=O)N2C[C@H](O)C[C@H]2C(=O)N[C@@H](Cc2c[nH]c3ccccc23)C(=O)N[C@@H](CO)C(=O)N[C@@H](Cc2c[nH]c3ccccc23)C(=O)N1C [Example 5255] ({CH2CO}-Y[NMeA]DPHK(Ac)[Hyp]WSW[NMeNle][NMeNle]ECG-NH2; thioether N-14) | 1 to 9.9
CCCC[C@H]1C(=O)N(C)[C@@H](CCCC)C(=O)N[C@@H](CCCNC(=N)N)C(=O)N[C@H](C(=O)NCC(N)=O)CSCC(=O)N[C@@H](Cc2ccc(O)cc2)C(=O)N(C)[C@@H](C)C(=O)N[C@@H](CC(=O)O)C(=O)N2CCC[C@H]2C(=O)N[C@@H](Cc2c[nH]cn2)C(=O)N[C@@H](CCCCN)C(=O)N2C[C@H](O)C[C@H]2C(=O)N[C@@H](Cc2c[nH]c3ccccc23)C(=O)N[C@@H](CCCCN)C(=O)N[C@@H](Cc2csc3ccccc23)C(=O)N1C [Example 5256] | 10 to 99.9
CCCC[C@H]1C(=O)N(C)[C@@H](CCCC)C(=O)N[C@@H](CCC(=O)O)C(=O)N[C@H](C(=O)NCC(N)=O)CSCC(=O)N[C@@H](Cc2ccc(O)cc2)C(=O)N(C)[C@@H](C)C(=O)N[C@@H](CC(=O)O)C(=O)N2CCC[C@H]2C(=O)N[C@@H](CN)C(=O)N[C@@H](CC(C)C)C(=O)N2C[C@H](O)C[C@H]2C(=O)N[C@@H](Cc2c[nH]c3ccccc23)C(=O)N[C@@H](CCC(=O)O)C(=O)N[C@@H](Cc2c[nH]c3ccccc23)C(=O)N1C [Example 5257] ({CH2CO}-Y[NMeA]DP[Dap]L[Hyp]WEW[NMeNle][NMeNle]ECG-NH2; thioether N-14) | 10 to 99.9
CCCC[C@H]1C(=O)N(C)[C@@H](CCCC)C(=O)N[C@@H](CC(C)C)C(=O)N[C@H](C(=O)NCC(N)=O)CSCC(=O)N[C@@H](Cc2ccc(O)cc2)C(=O)N(C)[C@@H](C)C(=O)N[C@@H](CC(N)=O)C(=O)N2CCC[C@H]2C(=O)N[C@@H](CN)C(=O)N[C@@H](CCC(N)=O)C(=O)N2C[C@H](O)C[C@H]2C(=O)N[C@@H](Cc2c[nH]c3ccccc23)C(=O)N[C@@H](CCN)C(=O)N[C@@H](Cc2cn(CC(=O)O)c3ccccc23)C(=O)N1C [Example 5259] ({CH2CO}-Y[NMeA]NP[Dap]Q[Hyp]W[Dab][Trp(1-CH2COOH)][NMeNle][NMeNle]LCG-NH2; thioether N-14) | 1 to 9.9
CCCC[C@H]1C(=O)N(C)[C@@H](CCCC)C(=O)N[C@@H](CCC(=O)O)C(=O)N[C@H](C(=O)NCC(N)=O)CSCC(=O)N[C@@H](Cc2ccc(O)cc2)C(=O)N(C)[C@@H](C)C(=O)N[C@@H](CC(=O)O)C(=O)N2CCC[C@H]2C(=O)N[C@@H](CO)C(=O)N[C@@H](CCC(=O)O)C(=O)N2C[C@H](O)C[C@H]2C(=O)N[C@@H](Cc2c[nH]c3ccccc23)C(=O)N[C@@H](CCC(=O)O)C(=O)N[C@@H](Cc2c[nH]c3ccccc23)C(=O)N1C [Example 5260] ({CH2CO}-Y[NMeA]DPSE[Hyp]WEW[NMeNle][NMeNle]ECG-NH2; thioether N-14) | 1 to 9.9

Other lines, results leading:

IC50 [nM] | Structure (SMILES)
1000 to 10000 | CCCC[C@H]1C(=O)N(C)[C@@H](CCCC)C(=O)N(C)CC(=O)N[C@H](C(=O)NCC(N)=O)CSCC(=O)N[C@@H](Cc2ccc(O)cc2)C(=O)N(C)[C@@H](C)C(=O)N[C@@H](CC(N)=O)C(=O)N2CCC[C@H]2C(=O)N[C@@H](Cc2c[nH]cn2)C(=O)N[C@@H](CCC(N)=O)C(=O)N2C[C@H](O)C[C@H]2C(=O)N[C@@H](Cc2c[nH]c3ccccc23)C(=O)N[C@@H](CO)C(=O)N[C@@H](Cc2c[nH]c3ccccc23)C(=O)N1C [Example 5263] ({CH2CO}-Y[NMeA]NPHQ[Hyp]WSW[NMeNle][NMeNle][Sar]CG-NH2; thioether N-14)
1000 to 10000 | CCCC[C@H]1C(=O)N(C)[C@@H](CCCC)C(=O)N(C)[C@@H](CC(C)C)C(=O)N[C@H](C(=O)NCC(N)=O)CSCC(=O)N[C@@H](Cc2ccc(O)cc2)C(=O)N(C)[C@@H](C)C(=O)N[C@@H](CC(N)=O)C(=O)N2CCC[C@H]2C(=O)N[C@@H](Cc2c[nH]cn2)C(=O)N[C@@H](CCC(=O)O)C(=O)N2C[C@H](O)C[C@H]2C(=O)N[C@@H](Cc2c[nH]c3ccccc23)C(=O)N[C@@H](CCN)C(=O)N[C@@H](Cc2csc3ccccc23)C(=O)N1C [Example 5264] ({CH2CO}-Y[NMeA]NPHE[Hyp]W[Dab][Bta][NMeNle][NMeNle][NMeL]CG-NH2; thioether N-14)
10 to 99.9 | CCCC[C@H]1C(=O)N[C@@H](CC(C)C)C(=O)N[C@H](C(=O)NCC(N)=O)CSCC(=O)N[C@@H](Cc2ccc(O)cc2)C(=O)N(C)[C@@H](C)C(=O)N[C@@H](CC(N)=O)C(=O)N2CCCC2C(=O)N[C@@H](CN)C(=O)N[C@@H](CC(C)C)C(=O)N2C[C@H](O)C[C@H]2C(=O)N[C@@H](Cc2c[nH]c3ccccc23)C(=O)N[C@@H](CCN)C(=O)N(C)[C@@H](Cc2c[nH]c3ccccc23)C(=O)N(C)[C@@H](CCCC)C(=O)N1C (stereo partly drawn) [Example 5265] ({CH2CO}-Y[NMeA]N[ξP][Dap]L[Hyp]W[Dab][NMeW][NMeNle][NMeNle]LCG-NH2; thioether N-14)
1 to 9.9 | CCCC[C@H]1C(=O)N(C)[C@@H](CCCC)C(=O)N[C@@H](CC(C)C)C(=O)N[C@H](C(=O)NCC(N)=O)CSCC(=O)N[C@@H](Cc2ccc(O)cc2)C(=O)N(C)[C@@H](C)C(=O)N[C@@H](CC(N)=O)C(=O)N2CCC[C@H]2C(=O)N[C@@H](CC(N)=O)C(=O)N[C@@H](CCC(N)=O)C(=O)N2C[C@H](O)C[C@H]2C(=O)N[C@@H](Cc2c[nH]c3ccccc23)C(=O)N[C@@H](CCN)C(=O)N[C@@H](Cc2cn(CC(=O)O)c3ccccc23)C(=O)N1C [Example 6118] ({CH2CO}-Y[NMeA]NPNQ[Hyp]W[Dab][Trp(1-CH2COOH)][NMeNle][NMeNle]LCG-NH2; thioether N-14)
1 to 9.9 | CCCC[C@H]1C(=O)N(C)[C@@H](CCCC)C(=O)N[C@@H](CCN)C(=O)N[C@H](C(=O)NCC(N)=O)CSCC(=O)N[C@@H](Cc2ccc(O)cc2)C(=O)N(C)[C@@H](C)C(=O)N[C@@H](CC(N)=O)C(=O)N2CCC[C@H]2C(=O)N[C@@H](CN)C(=O)N[C@@H](CCC(N)=O)C(=O)N2C[C@H](O)C[C@H]2C(=O)N[C@@H](Cc2c[nH]c3ccccc23)C(=O)N[C@@H](CO)C(=O)N[C@@H](Cc2cn(CC(=O)O)c3ccccc23)C(=O)N1C [Example 6119] ({CH2CO}-Y[NMeA]NP[Dap]Q[Hyp]WS[Trp(1-CH2COOH)][NMeNle][NMeNle][Dab]CG-NH2; thioether N-14)
1 to 9.9 | CCCC[C@H]1C(=O)N(C)[C@@H](CCCC)C(=O)N[C@@H](CCC(=O)O)C(=O)N[C@H](C(=O)NCC(N)=O)CSCC(=O)N[C@@H](Cc2ccc(O)cc2)C(=O)N(C)[C@@H](C)C(=O)N[C@@H](CC(N)=O)C(=O)N2CCC[C@H]2C(=O)N[C@@H](Cc2cnc[nH]2)C(=O)N[C@@H](CCC(=O)O)C(=O)N2C[C@H](O)C[C@H]2C(=O)N[C@@H](Cc2c[nH]c3ccccc23)C(=O)N[C@@H](CCN)C(=O)N[C@@H](Cc2cn(CC(=O)O)c3ccccc23)C(=O)N1C [Example 6134] ({CH2CO}-Y[NMeA]NPHE[Hyp]W[Dab][Trp(1-CH2COOH)][NMeNle][NMeNle]ECG-NH2; thioether N-14)

Same assay, conditions: PD-L1-His 10 nM, PD-1-Ig 20 nM; read-out: HTRF Human PD-L1/PD-1 Binding Assay IC50

IC50 [nM] | Structure (SMILES)
101 | CCCC[C@H]1C(=O)N(C)[C@@H](CCCC)C(=O)N[C@@H](CC(C)C)C(=O)N[C@H](C(=O)NCC(N)=O)CSCC(=O)N[C@@H](Cc2ccc(O)cc2)C(=O)N(C)[C@@H](C)C(=O)N[C@@H](CC(N)=O)C(=O)N2CCC[C@H]2C(=O)N(C)CC(=O)N[C@@H](CCC(N)=O)C(=O)N2C[C@H](O)C[C@H]2C(=O)N[C@@H](Cc2c[nH]c3ccccc23)C(=O)N[C@@H](CO)C(=O)N[C@@H](Cc2c[nH]c3ccccc23)C(=O)N1C [Example 5262] ({CH2CO}-Y[NMeA]NP[Sar]Q[Hyp]WSW[NMeNle][NMeNle]LCG-NH2; thioether N-14)
